Read-outs that look alike come from different tables or passages of the source.

The nature of data set [1]: single oral dose pharmacokinetic study in healthy and NASH subjects. It is filed as in vivo, human. The conditions noted are these: for AUC(0-t) / AUC(0-inf) / Cmax / half-life / Tmax / Vd/F: human, plasma, po. The method, then: The present Example was a randomized, dose ranging, single dose safety and pharmacokinetic study of 25HC3S administered to subjects with NASH and control healthy subjects. […] For each cohort, 10 subjects with NASH were enrolled which were further classified into cirrhotic and non-cirrhotic. Each subject received only one dose of study treatment. The second cohort was dosed after a review of safety and tolerability data from Cohort 1.

Data set [2] in a line: metabolite profiling of plasma and feces after oral dose. It is filed as in vivo, rat. The conditions noted are these: rats 75 mg/kg oral. The text has this:
Radiolabeled components in plasma and feces extracts were profiled and identified using radio-high performance liquid chromatography (HPLC) and high performance liquid chromatography/mass spectrometry (HPLC/MS) methods.

The conditions of data set [3]: Sprague Dawley, rat, in vivo, iv, 10 mg/kg.
Method: (§1) Samples were profiled using high performance liquid chromatography with radiodetection and metabolic characterization was performed using mass spectrometry and tandem mass spectrometry analysis.
Data set [4] relates to DNMT1/3a/3b and 9 other epigenetic enzymes. Kind of data set: epigenetic enzyme activity panel. Type of data set: biochemical. The text has this:
The major epigenetic regulation includes DNA and histone methylation, demethylation, acetylation, and deacetylation. The enzymes involved in the process are DNA and histone methyltransferases/demethylases, and acetyltransferases/deacetylases.

Data set [5] in a line: metabolite profiling of plasma, urine, feces after intravenous dose. Conditions: rats 10 mg/kg intravenous 25HC3S.
Method: as §1
Setting [6] is: 50 mg single oral dose, Healthy.
Setting [7] is: 200 mg single oral dose, Healthy.

A word on the Cmax: it is the highest concentration seen after dosing. One may read the Tmax as the time at which the peak concentration occurs. Turning to `C[C@H](CCCC(C)(C)O)[C@H]1CC[C@H]2[C@@H]3CC=C4C[C@@H](OS(=O)(=O)[O-])CC[C@]4(C)[C@H]3CC[C@]12C.[Na+]` [25HC3S sodium, 25-hydroxycholesterol-3-sulfate sodium], the “CL/F, Geometric Mean” value in data set [1] (setting [6]) is reported as 118.11 L/h; in data set [1] (50 mg single oral dose, NASH) it was 82.19 L/h; in data set [1] (setting [7]), 169.32 L/h; in data set [1] (200 mg single oral dose, NASH), 141.66 L/h. Further, the “CL/F, Mean” value in data set [1] (setting [6]) is on record as 122.35 L/h; in data set [1] (50 mg single oral dose, NASH) it was 85.29 L/h; in data set [1] (setting [7]), 171.25 L/h; in data set [1] (200 mg single oral dose, NASH), 143.19 L/h. Further, the AUC(0-t) amounted to 497 ng·h/mL in data set [1] (50 mg, 50 mg single oral dose, Healthy, read-out: AUC0-12, Geometric Mean); 528 ng·h/mL in data set [1] (50 mg, 50 mg single oral dose, Healthy, read-out: AUC0-12, Mean); 450 ng·h/mL in data set [1] (50 mg, 50 mg single oral dose, Healthy, read-out: AUC0-last, Geometric Mean); 477 ng·h/mL in data set [1] (50 mg, 50 mg single oral dose, Healthy, read-out: AUC0-last, Mean); 598 ng·h/mL in data set [1] (50 mg, 50 mg single oral dose, NASH, read-out: AUC0-12, Geometric Mean); 623 ng·h/mL in data set [1] (50 mg, 50 mg single oral dose, NASH, read-out: AUC0-12, Mean). Moreover, the AUC(0-t) in data set [1] (50 mg, 50 mg single oral dose, NASH, read-out: AUC0-last, Geometric Mean) stood at 476 ng·h/mL; in data set [1] (50 mg, 50 mg single oral dose, NASH, read-out: AUC0-last, Mean) it was 513 ng·h/mL; in data set [1] (200 mg, 200 mg single oral dose, Healthy, read-out: AUC0-12, Geometric Mean) it was 1160 ng·h/mL; in data set [1] (200 mg, 200 mg single oral dose, Healthy, read-out: AUC0-12, Mean), 1180 ng·h/mL; in data set [1] (200 mg, 200 mg single oral dose, Healthy, read-out: AUC0-last, Geometric Mean), 1170 ng·h/mL; in data set [1] (200 mg, 200 mg single oral dose, Healthy, read-out: AUC0-last, Mean), 1190 ng·h/mL. Moreover, the AUC(0-t) stood at 1500 ng·h/mL in data set [1] (200 mg, 200 mg single oral dose, NASH, read-out: AUC0-12, Geometric Mean); 1540 ng·h/mL in data set [1] (200 mg, 200 mg single oral dose, NASH, read-out: AUC0-12, Mean); 1540 ng·h/mL in data set [1] (200 mg, 200 mg single oral dose, NASH, read-out: AUC0-last, Geometric Mean); 1580 ng·h/mL in data set [1] (200 mg, 200 mg single oral dose, NASH, read-out: AUC0-last, Mean). Also, the AUC(0-inf) was 423 ng·h/mL in data set [1] (50 mg, 50 mg single oral dose, Healthy, read-out: AUCinf, Geometric Mean); 439 ng·h/mL in data set [1] (50 mg, 50 mg single oral dose, Healthy, read-out: AUCinf, Mean); 608 ng·h/mL in data set [1] (50 mg, 50 mg single oral dose, NASH, read-out: AUCinf, Geometric Mean); 636 ng·h/mL in data set [1] (50 mg, 50 mg single oral dose, NASH, read-out: AUCinf, Mean); 1180 ng·h/mL in data set [1] (200 mg, 200 mg single oral dose, Healthy, read-out: AUCinf, Geometric Mean); 1190 ng·h/mL in data set [1] (200 mg, 200 mg single oral dose, Healthy, read-out: AUCinf, Mean). The AUC(0-inf) in data set [1] (200 mg, 200 mg single oral dose, NASH, read-out: AUCinf, Geometric Mean) turned out to be 1410 ng·h/mL; in data set [1] (200 mg, 200 mg single oral dose, NASH, read-out: AUCinf, Mean), 1430 ng·h/mL. For the same compound, the maximum concentration (Cmax) in data set [1] (50 mg, 50 mg single oral dose, Healthy, read-out: Cmax, Geometric Mean) is 90.9 ng/mL; in data set [1] (50 mg, 50 mg single oral dose, Healthy, read-out: Cmax, Mean), 94 ng/mL; in data set [1] (50 mg, 50 mg single oral dose, NASH, read-out: Cmax, Geometric Mean), 108 ng/mL; in data set [1] (50 mg, 50 mg single oral dose, NASH, read-out: Cmax, Mean) it was 113 ng/mL; in data set [1] (200 mg, 200 mg single oral dose, Healthy, read-out: Cmax, Geometric Mean) it was 256 ng/mL; in data set [1] (200 mg, 200 mg single oral dose, Healthy, read-out: Cmax, Mean), 260 ng/mL. Also, the Cmax in data set [1] (200 mg, 200 mg single oral dose, NASH, read-out: Cmax, Geometric Mean) turned out to be 319 ng/mL; in data set [1] (200 mg, 200 mg single oral dose, NASH, read-out: Cmax, Mean), 333 ng/mL. The half-life in data set [1] (50 mg, 50 mg single oral dose, Healthy, read-out: T1/2, Geometric Mean (converted)) is 113 min; in data set [1] (50 mg, 50 mg single oral dose, Healthy, read-out: T1/2, Mean (converted)), 114 min; in data set [1] (50 mg, 50 mg single oral dose, NASH, read-out: T1/2, Geometric Mean (converted)), 100 min; in data set [1] (50 mg, 50 mg single oral dose, NASH, read-out: T1/2, Mean (converted)) it was 100 min; in data set [1] (200 mg, 200 mg single oral dose, Healthy, read-out: T1/2, Geometric Mean (converted)) it was 103 min; in data set [1] (200 mg, 200 mg single oral dose, Healthy, read-out: T1/2, Mean (converted)), 105 min. The half-life in data set [1] (200 mg, 200 mg single oral dose, NASH, read-out: T1/2, Geometric Mean (converted)) was 132 min; in data set [1] (200 mg, 200 mg single oral dose, NASH, read-out: T1/2, Mean (converted)) it was 151 min. The time of peak concentration (Tmax) stood at 2.83 h in data set [1] (50 mg, 50 mg single oral dose, Healthy, read-out: Tmax, Geometric Mean); 3.01 h in data set [1] (50 mg, 50 mg single oral dose, Healthy, read-out: Tmax, Mean); 2.31 h in data set [1] (50 mg, 50 mg single oral dose, NASH, read-out: Tmax, Geometric Mean); 2.41 h in data set [1] (50 mg, 50 mg single oral dose, NASH, read-out: Tmax, Mean); 2.53 h in data set [1] (200 mg, 200 mg single oral dose, Healthy, read-out: Tmax, Geometric Mean); 2.67 h in data set [1] (200 mg, 200 mg single oral dose, Healthy, read-out: Tmax, Mean). Further, the time to peak (Tmax) in data set [1] (200 mg, 200 mg single oral dose, NASH, read-out: Tmax, Geometric Mean) was found to be 2.65 h; in data set [1] (200 mg, 200 mg single oral dose, NASH, read-out: Tmax, Mean), 2.91 h. Also, the Vd/F in data set [1] (50 mg, 50 mg single oral dose, Healthy, read-out: Vz/F, Geometric Mean) amounted to 322 L; in data set [1] (50 mg, 50 mg single oral dose, Healthy, read-out: Vz/F, Mean), 325 L; in data set [1] (50 mg, 50 mg single oral dose, NASH, read-out: Vz/F, Geometric Mean), 198 L; in data set [1] (50 mg, 50 mg single oral dose, NASH, read-out: Vz/F, Mean) it was 203 L; in data set [1] (200 mg, 200 mg single oral dose, Healthy, read-out: Vz/F, Geometric Mean) it was 420 L; in data set [1] (200 mg, 200 mg single oral dose, Healthy, read-out: Vz/F, Mean) it was 434 L. Further, the Vd/F in data set [1] (200 mg, 200 mg single oral dose, NASH, read-out: Vz/F, Geometric Mean) came to 449 L; in data set [1] (200 mg, 200 mg single oral dose, NASH, read-out: Vz/F, Mean), 540 L.

`C[C@H](CCCC(C)(C)O)[C@H]1CC[C@H]2[C@@H]3CC=C4C[C@@H](O)CC[C@]4(C)[C@H]3CC[C@]12C` [25HC, 25-Hydroxycholesterol, reference compound]: the “relative observed intensity (ROI) in plasma” value in data set [2] (2 hour post-dose) came to 37%. Further, in data set [2] (pools 0 to 168 hours), the “% of total dose in feces” value was 1.9%. Moreover, in data set [3], the “detection in plasma, urine, or feces samples” value is “Neither desmosterol sulfate nor 25-hydroxycholesterol was detected”.

Consider `C[C@@H](CO)CCC[C@@H](C)[C@H]1CC[C@H]2[C@@H]3CC=C4C[C@@H](O)CC[C@]4(C)[C@H]3CC[C@]12C` [27HC, 27-Hydroxycholesterol], for which the “effect on enzymatic activities” value in data set [4] is “no effect on other enzymes”.

`CC(C)CCC[C@@H](C)[C@H]1CC[C@H]2[C@@H]3CC=C4C[C@@H](OS(=O)(=O)O)CC[C@]4(C)[C@H]3CC[C@]12C` [Xol3S, Cholesterol 3-Sulfate]: the “effect on enzymatic activities” value in data set [4] is “did not significantly affect enzymatic activities”.

Turning to `CC(C)CCC[C@@H](C)[C@H]1CC[C@H]2[C@@H]3CC=C4C[C@@H](O)CC[C@]4(C)[C@H]3CC[C@]12C` [Xol, Cholesterol], the “effect on enzymatic activities” value in data set [4] was “did not significantly affect enzymatic activities”.

Turning to desmosterol sulfate, the “detection in plasma, urine, or feces samples” value in data set [5] is listed as “Neither desmosterol sulfate nor 25-hydroxycholesterol was detected”.

The record behind these values is patent US12642805B2, “Use of oxygenated cholesterol sulfates for treating at least one of insulin resistance, diabetes, and prediabetes” (Medicis Pharmaceutical Corporation, priority 2020, dated 2026).
